For this experiment, the system named is Mutant TERT. Put plainly: HepG2 hTERT mRNA assay (qPCR). As to conditions: Homo sapiens; HepG2 cells (mutated TERT), 48 hours, TERT mRNA via qPCR. It counts as cell-based, human. The protocol:
HepG2 cells (hepatocyte carcinoma (HCC) cells; with mutated TERT) or HEK293T cells (with wild type (wt) TERT) were seeded at 4,000 cells/well in 96-well plates. The following day, test compounds were added to cells for at concentrations of 25 uM, 12.5 uM, 6.25 uM, 3.125 uM, 1.563 uM, 0.781 uM, 0.391 uM, 0.195 uM, 0.098 uM or vehicle control (0.1% DMSO). Each condition was tested in three replicate wells. 48 hours post drug addition, the cells were harvested for RNA using the 96-Magmax RNA Isolation kit (Cat. No. AM1830). RNA was converted to cDNA using the Superscript III First strand cDNA synthesis kit (Cat. No. 18080051). RNA and cDNA concentration and quality were determined using the NanoQuant nucleic acid quantification method. 500 ng cDNA from each sample was used to detect TERT mRNA via qPCR. GUSB was also measured as an internal control and fold change to vehicle control was determined using the delta CT method.
A general note: Quantitative PCR measures a nucleic acid by following its amplification.

`O=C(O)C[C@H]1C[C@H](c2ccc(F)c(F)c2)CN(Cc2ccc(C(F)(F)F)cc2)C1` (racemic) [Compound 121, Anti-2-(-5-(3,4-difluorophenyl)-1-(4-(trifluoromethyl)benzyl)piperidin-3-yl)acetic acid]: the IC50 (usually the concentration needed to halve the response being measured) was in the range of 500 to 5000 nM.
`O=C(O)C[C@H]1C[C@H](c2ccc(F)cc2)CN(Cc2ccc(C(F)(F)F)cc2)C1` (racemic) [Compound 122, Anti-2-(5-(4-fluorophenyl)-1-(4-(trifluoromethyl)benzyl)piperidin-3-yl)acetic acid] returned an IC50 of 500 to 5000 nM.
As to `O=C(O)C[C@H]1C[C@H](c2ccc(Cl)cc2)CN(Cc2ccc(C(F)(F)F)cc2)C1` (racemic) [Compound 123, Anti-2-(-5-(4-chlorophenyl)-1-(4-(trifluoromethyl)benzyl)piperidin-3-yl)acetic acid], the half-inhibitory concentration (IC50) is less than 500 nM.
In the case of `N#Cc1cccc(CN2C[C@@H](CC(=O)O)C[C@H](c3ccc(C(F)(F)F)cc3)C2)c1` (racemic) [Compound 124, Anti-2-(-1-(3-cyanobenzyl)-5-(4-(trifluoromethyl)phenyl)piperidin-3-yl)acetic acid] it was less than 500 nM; in that of `CCC(C(=O)O)[C@@H]1C[C@@H](c2ccc(C(F)(F)F)cc2)CN(Cc2ccc(C(F)(F)F)cc2)C1` (mixture of isomers) [Compound 125, Anti-2-(1-(4-(trifluoromethyl)benzyl)-5-(4-(trifluoromethyl)phenyl)piperidin-3-yl)butanoic acid], 500 to 5000 nM.
In the case of `N#Cc1cccc([C@H]2C[C@H](CC(=O)O)CN(Cc3ccc(C(F)(F)F)cc3)C2)c1` (racemic) [Compound 127, anti-2-(5-(3-cyanophenyl)1-(4-(trifluoromethyl)benzyl)piperidin-3-yl)acetic acid] it was 500 to 5000 nM.
As to `O=C(O)C[C@H]1C[C@H](c2ccc(C(F)(F)F)cc2)CN(Cc2ccc(C(F)(F)F)cc2F)C1` (racemic) [Compound 128, Anti-2-(1-(2-fluoro-4-(trifluoromethyl)benzyl)-5-(4-(trifluoromethyl)phenyl)piperidin-3-yl)acetic acid], the IC50 fell in the range of 500 to 5000 nM.
In the case of `O=C(O)C[C@H]1C[C@H](c2ccc(C(F)(F)F)c(F)c2)CN(Cc2ccc(C(F)(F)F)cc2)C1` (racemic) [Compound 129, Anti-2-(5-(3-fluoro-4-(trifluoromethyl)phenyl)-1-(4-(trifluoromethyl)benzyl)piperidin-3-yl)acetic acid] it was 500 to 5000 nM.
Regarding `O=C(O)C[C@H]1C[C@H](c2ccc(C(F)(F)F)cc2)CN(Cc2ccc(C(F)(F)F)c(F)c2)C1` (racemic) [Compound 130, Anti-2-(1-(3-fluoro-4-(trifluoromethyl)benzyl)-5-(4-(trifluoromethyl)phenyl)piperidin-3-yl)acetic acid], the half-inhibitory concentration (IC50) was 500 to 5000 nM.
The compound `O=C(O)C[C@H]1C[C@H](c2ccc(C(F)(F)F)cc2)CN(Cc2ccc(C(F)(F)F)cc2Cl)C1` (racemic) [Compound 131, Anti-2-(-1-(2-chloro-4-(trifluoromethyl)benzyl)-5-(4-(trifluoromethyl)phenyl)piperidin-3-yl)acetic acid] had a 50% inhibitory concentration (IC50) of 500 to 5000 nM.
In the case of `O=C(O)C[C@H]1C[C@H](CCc2ccc(C(F)(F)F)cc2)CN(Cc2ccc(C(F)(F)F)cc2)C1` (racemic) [Compound 133, Anti-2-(1-(4-(trifluoromethyl)benzyl)-5-(4-(trifluoromethyl)phenethyl)piperidin-3-yl)acetic acid] it was 500 to 5000 nM; in that of `[N-]=[N+]=NCc1ccc(CN2C[C@@H](CC(=O)O)C[C@H](c3ccc(N=[N+]=[N-])cc3)C2)cc1` (racemic) [Compound 134, anti-2-(1-(4-(azidomethyl)benzyl)-5-(4-azidophenyl)piperidin-3-yl)acetic acid], 500 to 5000 nM; in that of `O=C(O)C[C@H]1C[C@H](c2ccc(Cl)cc2)CN(Cc2ccc(Cl)cc2)C1` (racemic) [Compound 135, Anti-2-(1-(4-chlorobenzyl)-5-(4-chlorophenyl)piperidin-3-yl)acetic acid], less than 500 nM.

Values taken from patent US20230416202A1, “Small Molecule Compounds and Compositions” (Telo Therapeutics, Inc., priority 2020, published 2023).
